Laboratory results from PubChem BioAssay (NCI).
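All cell lines were grown in 96-well plates and treated with compound for 48 hours. Here, GI50 denotes the concentration required for 50% inhibition of growth. TGI marks complete inhibition of growth.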

How the values were obtained:
Assay in all cases: DTP human tumour cell line panel, 48 h
OVCAR-4 ovarian = system: OVCAR-4 ovarian
HOP-62 NSCLC = system: HOP-62 NSCLC
HS 578T breast = system: HS 578T breast
NCI/ADR-RES ovarian = system: NCI/ADR-RES ovarian
T-47D breast = system: T-47D breast
MDA-MB-435 = system: MDA-MB-435
SK-MEL-2 melanoma = system: SK-MEL-2 melanoma
SW-620 colon = system: SW-620 colon
COLO 205 colon = system: COLO 205 colon
K-562 leukemia = system: K-562 leukemia
SK-MEL-5 melanoma = system: SK-MEL-5 melanoma
SNB-19 CNS = system: SNB-19 CNS
DU-145 prostate = system: DU-145 prostate
TK-10 renal = system: TK-10 renal
KM12 colon = system: KM12 colon
NCI-H522 lung = system: NCI-H522 lung
SF-295 CNS = system: SF-295 CNS
HCT-116 colon = system: HCT-116 colon
MDA-MB-231 breast = system: MDA-MB-231 breast
HT29 colon = system: HT29 colon
SF-268 CNS = system: SF-268 CNS
UACC-62 melanoma = system: UACC-62 melanoma
SK-MEL-28 melanoma = system: SK-MEL-28 melanoma
CCRF-CEM leukemia = system: CCRF-CEM leukemia
MALME-3M melanoma = system: MALME-3M melanoma
U251 CNS = system: U251 CNS
MOLT-4 leukemia = system: MOLT-4 leukemia
LOX IMVI melanoma = system: LOX IMVI melanoma

SMILES: COc1ccc(/C=C2/N=C(c3ccccc3)N(c3c(C)n(C)n(-c4ccccc4)c3=O)C2=O)cc1OC
- GI50 (OVCAR-4 ovarian): > 100 µM
- TGI (OVCAR-4 ovarian): > 100 µM
- GI50 (HOP-62 NSCLC): > 100 µM
- TGI (HOP-62 NSCLC): > 100 µM
- GI50 (HS 578T breast): 60 µM
- TGI (HS 578T breast): > 100 µM
- GI50 (NCI/ADR-RES ovarian): > 100 µM
- TGI (NCI/ADR-RES ovarian): > 100 µM
- GI50 (T-47D breast): 77.5 µM
- TGI (T-47D breast): > 100 µM
- GI50 (MDA-MB-435): > 100 µM
- TGI (MDA-MB-435): > 100 µM
- GI50 (SK-MEL-2 melanoma): > 100 µM
- TGI (SK-MEL-2 melanoma): > 100 µM
- GI50 (SW-620 colon): > 100 µM
- TGI (SW-620 colon): > 100 µM
- GI50 (COLO 205 colon): > 100 µM
- TGI (COLO 205 colon): > 100 µM
- GI50 (K-562 leukemia): > 100 µM
- TGI (K-562 leukemia): > 100 µM
- GI50 (SK-MEL-5 melanoma): 51.7 µM
- TGI (SK-MEL-5 melanoma): > 100 µM
- GI50 (SNB-19 CNS): > 100 µM
- TGI (SNB-19 CNS): > 100 µM
- GI50 (DU-145 prostate): > 100 µM
- TGI (DU-145 prostate): > 100 µM
- GI50 (TK-10 renal): > 100 µM
- TGI (TK-10 renal): > 100 µM
- GI50 (KM12 colon): > 100 µM
- TGI (KM12 colon): > 100 µM
- GI50 (NCI-H522 lung): > 100 µM
- TGI (NCI-H522 lung): > 100 µM
- GI50 (SF-295 CNS): > 100 µM
- TGI (SF-295 CNS): > 100 µM
- GI50 (HCT-116 colon): > 100 µM
- TGI (HCT-116 colon): > 100 µM
- GI50 (MDA-MB-231 breast): > 100 µM
- TGI (MDA-MB-231 breast): > 100 µM
- GI50 (HT29 colon): > 100 µM
- TGI (HT29 colon): > 100 µM
- GI50 (SF-268 CNS): > 100 µM
- TGI (SF-268 CNS): > 100 µM
- GI50 (UACC-62 melanoma): > 100 µM
- TGI (UACC-62 melanoma): > 100 µM
- GI50 (SK-MEL-28 melanoma): > 100 µM
- TGI (SK-MEL-28 melanoma): > 100 µM
- GI50 (CCRF-CEM leukemia): > 100 µM
- TGI (CCRF-CEM leukemia): > 100 µM
- GI50 (MALME-3M melanoma): > 100 µM
- TGI (MALME-3M melanoma): > 100 µM
- GI50 (U251 CNS): > 100 µM
- TGI (U251 CNS): > 100 µM
- GI50 (MOLT-4 leukemia): 78.3 µM
- TGI (MOLT-4 leukemia): > 100 µM
- GI50 (LOX IMVI melanoma): > 100 µM
- TGI (LOX IMVI melanoma): > 100 µM
